Laboratory results published in patent publication US8420696B2, “Use of low-dose ladostigil for neuroprotection” (priority 2005, dated 2013).

Legend:
[1] = test system: memory deficits after icv injections of STZ; settings: chronic treatment; cited from earlier work
[2] = test system: rats injected icv with Aβ(1-40); settings: cited from earlier work
MAO-B = assay: In vivo MAO inhibition assay (MAO-B); parameters: species or system Rats and mice
Experimental: (§1) The level of MAO (MAO-A and MAO-B) inhibition can be determined by routine methods, including those detailed below.
(§2) Rats and mice are treated by subcutaneous (s.c.) or intraperitoneal (i.p.) injection or oral (p.o.) administration of the compound to be tested. Animals are decapitated approximately 2 hours after drug treatment and MAO activity is determined in the brain, intestine, and/or liver. MAO activity is expressed as percentage of enzyme activity relative to a control group administered with vehicle only. Effective doses producing 50% MAO inhibition (ED50 values) are calculated from inhibition curves.
(§3) Repeated treatment by ladostigil (e.g. daily doses for 7 days) can be used to calculate inhibition achieved through chronic administration.

MAO-A = assay: In vivo MAO inhibition assay (MAO-A); parameters: species or system Rats and mice
Experimental: as §1, §2, §3

ChE = assay: In vivo ChE inhibition assay; parameters: species or system cynomolgus monkeys; settings: acute or chronic administration, amounts up to 7.0 mg/kg ladostigil base
Experimental: The level of ChE inhibition can be determined by routine methods, including those detailed below.
In vivo measurement of ChE inhibition is similar to that of in vivo measurement of MAO inhibition, except that cynomolgus monkeys are treated, and tissues are examined for brain, plasma and erythrocytes ChE inhibition.

[3] = acute administration, amounts up to 20.4 mg/kg of ladostigil base
[4] = chronic administration, amounts up to 4.5 mg/kg of ladostigil base

Compound: COc1ccc2[nH]cc(CCNC(C)=O)c2c1 [melatonin]
- Memory deficits 3-8 weeks after icv STZ [1]: can be reduced

Compound: CC12CC3CC(C)(C1)CC(N)(C3)C2 [memantine]
- Activation of microglia and astrocytes and memory deficits after icv Aβ(1-40) [2]: reduced the activation of microglia and astrocytes and the memory deficits

Compound: Oc1ccc(C=Cc2cc(O)cc(O)c2)cc1 [resveratrol]
- Memory deficits 3-8 weeks after icv STZ [1]: can be reduced

Compound: R(+)-6-(N-methyl,N-ethyl-carbamoyloxy)-N′-propargyl-1-aminoindan [ladostigil tartrate]
- MAO inhibition (MAO-B) (MAO-B; [3]): no more than 25%
- MAO inhibition (MAO-B) (MAO-B; [4]): no more than 25%
- MAO inhibition (MAO-A) (MAO-A; [3]): no more than 25%
- MAO inhibition (MAO-A) (MAO-A; [4]): no more than 25%
- ChE inhibition (ChE): no more than 30%
